This is an account of results in patent EP2951180B1, “2,6,7,8 SUBSTITUTED PURINES AS HDM2 INHIBITORS” (Merck Sharp & Dohme Corp., priority 2013, dated 2014).

The target in this test is T1, HDM2 (Homo sapiens, UniProt Q00987).
T1 construct: Thioredoxin (N); made in house; host or cells: E. coli strain BL21(DE3)Rosetta
Put plainly: HDM2 FRET assay (inhibition of binding of FITC labeled p53-pocket peptide to HDM2). To be noted: for IC50: read-out: FRET IC50. The gist of the method:
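Final: 0.5 nM His-HDM2, 3 nM FITC peptide, 0.25 nM Tb anti-His Ab; PBS, 0.01% BSA, 0.01% Tween-20; 0.1% DMSO.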

Setting [1] is: 0.5 nM HDM2 (residues 17 to 125), 3nM peptide, two hour incubation at room temperature.

Like-named read-outs stand apart in the source and are kept apart here.

T1 sequence (Q00987 17-125): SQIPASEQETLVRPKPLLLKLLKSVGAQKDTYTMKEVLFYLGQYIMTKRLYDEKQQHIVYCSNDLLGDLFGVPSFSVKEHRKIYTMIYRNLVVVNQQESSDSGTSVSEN

Turning to `C[C@@H](Nc1nc(-c2n[nH]c(=O)o2)nc2nc(C3(c4ccccc4)CCC3)n(C[C@H]3CC[C@H](C)CC3)c12)C1CCC1` [Example 20.10, 5-[6-{[(1R)-1-cyclobutylethyl]amino}-7-[(trans-4-methylcyclohexyl)methyl]-8-(1-phenylcyclobutyl)-7H-purin-2-yl]-1,3,4-oxadiazol-2(3H)-one], the half-inhibitory concentration (IC50) (Table 20) amounted to 0.0289 µM.
In the case of `Cc1cccc(-c2nc3nc(C(=O)O)nc(NCC4CCCCC4)c3n2Cc2ccc(C(F)(F)F)cc2)c1` [Example 6.50, 6-[(cyclohexylmethyl)amino]-8-(3-methylphenyl)-7-[4-(trifluoromethyl)benzyl]-7H-purine-2-carboxylic acid], where the note is “Table 6”, the 50% inhibitory concentration (IC50) came out at 1.37 µM.
With `COC1(c2nc3nc(-c4noc(=O)[nH]4)nc(-c4cncc(Cl)c4)c3n2C[C@H]2CC[C@H](C)CC2)CCCC1` [Example 23.77, 3-{6-(5-chloropyridin-3-yl)-8-(1-methoxycyclopentyl)-7-[(trans-4-methylcyclohexyl)methyl] -7H-purin-2-yl}-1,2,4-oxadiazol-5(4H)-one], under “Table 23”, the IC50 worked out at 0.00806 µM.
With `C[C@H]1CC[C@H](Cn2c(N3CCOCC34CCC4)nc3nc(-c4n[nH]c(=O)o4)nc(-c4cccc(Cl)c4)c32)CC1` [Example 16.89, 5-[6-(3-chlorophenyl)-7-[(trans-4-methylcyclohexyl)methyl]-8-(8-oxa-5-azaspiro[3.5]non-5-yl)-7H-purin-2-yl]-1,3,4-oxadiazol-2(3H)-one], under setting [1], the IC50 turned out to be 0.025 µM.
As to `C[C@@H](Nc1nc(-c2noc(=O)[nH]2)nc2nc(N3CCC(C)(O)C3)n(C[C@H]3CC[C@H](C)CC3)c12)C1CCC1` (stereo partly drawn) [Example 11.113, 3-(6-{[(1R)-1-cyclobutylethyl]amino}-8-(3-hydroxy-3-methylpyrrolidin-1-yl)-7-[(trans-4-methylcyclohexyl)methyl]-7H-purin-2-yl)-1,2,4-oxadiazol-5(2H)-one], for the setting “Table 11”, the IC50 is 0.0577 µM.
On to `C[C@@H](Nc1nc(-c2noc(=O)[nH]2)nc2nc(C3(O)CCOCC3)n(C[C@H]3CC[C@H](C)CC3)c12)C1CCC1` [Example 22.64, 3-(6-{[(1R)-1-cyclobutylethyl]amino}-8-(4-hydroxytetrahydro-2H-pyran-4-yl)-7-[(trans-4-methylcyclohexyl)methyl] -7H-purin-2-yl)-1,2,4-oxadiazol-5(4H)-one], for which the IC50 (Table 22) is 0.049 µM.
In the case of `C[C@@H](Nc1nc(-c2noc(=O)[nH]2)nc2nc(N3CCOC4CCCC43)n(C[C@H]3CC[C@H](C)CC3)c12)C1CCC1` (single isomer, unassigned) [Example 11.148], the concentration for half-maximal inhibition (IC50) (Table 11) is 0.0238 µM.
Regarding `C[C@@H](Nc1nc(C(=O)O)nc2nc(C3CCCC(=O)C3c3ccccc3)n(Cc3ccc(C(F)(F)F)cc3)c12)C1CCC1` (stereo partly drawn) [Example 21.11, 6-{[(1R)-1-cyclobutylethyl]amino}-8-(3-oxo-2-phenylcyclohexyl)-7-[4-(trifluoromethyl)benzyl]-7H-purine-2-carboxylic acid], the IC50 (Table 21) turned out to be 0.00872 µM.
Consider `CNc1nc(N[C@H](C)C2CCC2)c2c(n1)nc(N1CCOC[C@H]1c1ccccc1)n2C[C@H]1CC[C@H](C)CC1` [Example 13.3, N^6-[(1R)-1-cyclobutylethyl]-N^2-methyl-7-[(trans-4-methylcyclohexyl)methyl]-8-[(3R)-3-phenylmorpholin-4-yl]-7H-purine-2,6-diamine], for which the inhibition at 1 µM (read-out: % inh. at 1000 nM, at 1000 nM compound) stood at 46%.
On to `Cc1cccc(-c2nc3nc(C(=O)O)nc(N[C@@H](C4CC4)C(F)(F)F)c3n2Cc2ccc(C(F)(F)F)cc2)c1` [Example 6.53, 6-{[(1S)-1-cyclopropyl-2,2,2-trifluoroethyl]amino}-8-(3-methylphenyl)-7-[4-(trifluoromethyl)benzyl]-7H-purine-2-carboxylic acid], for which the IC50 (Table 6) amounted to 0.419 µM.
Turning to `C[C@H]1CC[C@H](Cn2c(N3CCOC[C@H]3c3ccccc3)nc3nc(-c4noc(=O)[nH]4)nc(-c4ccc(F)c(Cl)c4)c32)CC1` [Example 16.24, 3-{6-(3-chloro-4-fluorophenyl)-7-[(trans-4-methylcyclohexyl)methyl]-8-[(3R)-3-phenylmorpholin-4-yl]-7H-purin-2-yl}-1,2,4-oxadiazol-5(4H)-one], the IC50 under setting [1] was determined as 0.00562 µM.
Take `CC(Nc1nc2nc(-c3noc(=O)[nH]3)nc(N[C@H](C)C3CCC3)c2n1Cc1ccc(C(F)(F)F)cc1)c1ccccn1` (stereo partly drawn) [Example 9.75, 3-(6-{[(1R)-1-cyclobutylethyl]amino}-8-[(1-pyridin-2-ylethyl)amino]-7-[4-(trifluoromethyl)benzyl]-7H-purin-2-yl)-1,2,4-oxadiazol-5(4H)-one]: the IC50 (Table 9) came out at 0.00812 µM.
Consider `Cc1nc2nc(C(=O)O)nc(N[C@H](C)C3CCC3)c2n1C[C@H]1CC[C@H](C)CC1` [Example 21.9, 6-{[(1R)-1-cyclobutylethyl]amino}-8-methyl-7-[(trans-4-methylcyclohexyl)methyl]-7H-purine-2-carboxylic acid], for which the IC50 (Table 21) was 0.101 µM.
Take `CC1CN(C)CCN1c1nc2nc(-c3noc(=O)[nH]3)nc(-c3cccc(Cl)c3)c2n1C[C@H]1CC[C@H](C)CC1` (relative stereo) [Example 16.53, 3-{6-(3-chlorophenyl)-8-(2,4-dimethylpiperazin-1-yl)-7-[(trans-4-methylcyclohexyl)methyl]-7H-purin-2-yl}-1,2,4-oxadiazol-5(4H)-one]: under setting [1], the IC50 came to 0.0428 µM.
Regarding `C[C@@H](Nc1nc(-c2noc(=O)[nH]2)nc2nc(N3CCCCC3c3cccc(F)c3)n(Cc3ccc(C(F)(F)F)cc3)c12)C1CCC1` (stereo partly drawn) [Example 9.113, 3-(6-{[(1R)-1-cyclobutylethyl]amino}-8-[2-(3-fluorophenyl)piperidin-1-yl]-7-[4-(trifluoromethyl)benzyl]-7H-purin-2-yl)-1,2,4-oxadiazol-5(4H)-one], under “Table 9”, the IC50 worked out at 0.0259 µM.
Regarding `Cc1cccc(-c2nc3nc(C(=O)O)nc(NCC4CC4)c3n2Cc2ccc(C(F)(F)F)cc2)c1` [Example 6.36, 6-[(cyclopropylmethyl)amino]-8-(3-methylphenyl)-7-[4-(trifluoromethyl)benzyl]-7H-purine-2-carboxylic acid], the IC50 (Table 6) came out at 0.67 µM.
Same read-out and setting: the same measure for `Cc1cccc(-c2nc3nc(C(=O)O)nc(N[C@@H](C)C(C)(C)C)c3n2Cc2ccc(C(F)(F)F)cc2)c1` [Example 6.41, 8-(3-methylphenyl)-7-[4-(trifluoromethyl)benzyl]-6-{[(1S)-1,2,2-trimethylpropyl]amino}-7H-purine-2-carboxylic acid]: 0.638 µM.
As for `C=C(c1nc2nc(-c3noc(=O)[nH]3)nc(N[C@H](C)C3CCC3)c2n1C[C@H]1CC[C@H](C)CC1)C1CCOCC1` [Example 22.42, 3-(6-{[(1R)-1-cyclobutylethyl]amino}-7-[(trans-4-methylcyclohexyl)methyl] -8-[1-(tetrahydro-2H-pyran-4-yl)ethenyl]-7H-purin-2-yl)-1,2,4-oxadiazol-5(4H)-one], the IC50 (Table 22) worked out at 0.00507 µM.
With `COC1(c2nc3nc(-c4noc(=O)[nH]4)nc(-c4cncc(Cl)c4)c3n2C[C@H]2CC[C@H](C)CC2)CCCCC1C` (relative stereo) [Example 23.63, 3-{6-(5-chloropyridin-3-yl)-8-(1-methoxy-2-methylcyclohexyl)-7-[(trans-4-methylcyclohexyl)methyl] -7H-purin-2-yl}-1,2,4-oxadiazol-5(4H)-one], the 50% inhibitory concentration (IC50) (Table 23) was found to be 0.00764 µM.
Regarding `CC(C)c1ccnc(-c2nc3nc(C(C)O)nc(N[C@H](C)C4CCC4)c3n2C[C@H]2CC[C@H](C)CC2)c1` (stereo partly drawn) [Example 12.6, 1-(6-{[(1R)-1-cyclobutylethyl]amino}-7-[(trans-4-methylcyclohexyl)methyl]-8-[4-(propan-2-yl)pyridin-2-yl]-7H-purin-2-yl)ethanol], the IC50 under setting [1] stood at 0.42 µM.
Turning to `C[C@H]1CC[C@H](Cn2c(N3CCOC[C@H]3c3ccccn3)nc3nc(-c4n[nH]c(=O)o4)nc(-c4cccc(Cl)c4)c32)CC1` [Example 16.99, 5-{6-(3-chlorophenyl)-7-[(trans-4-methylcyclohexyl)methyl]-8-[(3R)-3-pyridin-2-ylmorpholin-4-yl]-7H-purin-2-yl}-1,3,4-oxadiazol-2(3H)-one], under setting [1], the IC50 was determined as 0.00198 µM.
On to `C[C@H]1CC[C@H](Cn2c(Sc3ccccc3)nc3nc(-c4n[nH]c(=O)o4)nc(-c4cncc(Cl)c4)c32)CC1` [Example 19.6, 5-[6-(5-chloropyridin-3-yl)-7-[(trans-4-methylcyclohexyl)methyl]-8-(phenylsulfanyl)-7H-purin-2-yl]-1,3,4-oxadiazol-2(3H)-one], for which, for the setting “Table 19”, the IC50 was 0.00314 µM.
With `Cc1cccc(-c2nc3nc(C(=O)O)nc(NC(C)C4CC4C)c3n2Cc2ccc(C(F)(F)F)cc2)c1` (centres unmarked) [Example 6.37, 6-{[1-(2-methylcyclopropyl)ethyl]amino}-8-(3-methylphenyl)-7-[4-(trifluoromethyl)benzyl]-7H-purine-2-carboxylic acid], the IC50 (Table 6) amounted to 0.36 µM.
With `C[C@@H](Nc1nc(-c2noc(=O)[nH]2)nc2nc(C(C)(O)C(F)(F)F)n(C[C@H]3CC[C@H](C)CC3)c12)C1CCC1` (single isomer, unassigned) [Example 22.13], the IC50 (Table 22) was found to be 0.00584 µM.
For `C[C@@H](Nc1nc(-c2noc(=O)[nH]2)nc2nc(N(C)Cc3ccncn3)n(C[C@H]3CC[C@H](C)CC3)c12)C1CCC1` [Example 11.70, 3-(6-{[(1R)-1-cyclobutylethyl]amino}-7-[(trans-4-methylcyclohexyl)methyl]-8-[methyl(pyrimidin-4-ylmethyl)amino]-7H-purin-2-yl)-1,2,4-oxadiazol-5(2H)-one], the IC50 (Table 11) amounted to 0.0228 µM.
Consider `C[C@H]1CC[C@H](Cn2c(N3CCOC[C@H]3c3ccccc3)nc3nc(-c4n[nH]c(=O)o4)nc(-c4cc(Cl)cnc4O)c32)CC1` [Example 16.163, 5-{6-(5-chloro-2-hydroxypyridin-3-yl)-7-[(trans-4-methylcyclohexyl)methyl]-8-[(3R)-3-phenylmorpholin-4-yl]-7H-purin-2-yl} -1,3,4-oxadiazol-2(3H)-one], for which the IC50 under setting [1] came out at 0.00123 µM.

As a reminder, the IC50 is the concentration needed to halve the response being measured.
